These results are taken from PubChem BioAssay (NCI).

SMILES strings stand for the structures. Where “and” joins values, the source holds several entries; their conditions need not be identical. Identical values can stand only once.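 These data come from cells grown in 96-well plates and exposed to compound for 48 hours at five concentrations. Abbreviation: GI50, concentration required for 50% inhibition of growth. TGI is the concentration that stops growth completely.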 Where only a bound is given, the exact number is not on record here.

Test systems include 786-0 renal; DU-145 prostate; HS 578T breast; MCF7 breast; MDA-MB-231 breast; MDA-N; NCI/ADR-RES ovarian; SR leukemia; DMS 114 small cell lung; KM20L2 colon; M19-MEL melanoma; RXF-631 renal; XF 498 CNS.
Holding throughout (assay): NCI anticancer screen, dose series, 48 h

Regarding `COC(=O)c1ccc2c(c1)sc1nc(-c3ccc(OC)cc3)cn12`, the TGI in the assay with 786-0 renal, with DU-145 prostate, with HS 578T breast, in the assay on MCF7 breast, in the assay with MDA-MB-231 breast and in the assay on MDA-N was over 100 µM each time. This compound displayed a TGI in the assay on NCI/ADR-RES ovarian of over 100 µM.
With `NC(=O)CCSC(CC(=O)c1ccc(Cl)cc1)c1ccc(Cl)cc1` (stereo not drawn), the TGI with 786-0 renal is over 100 µM; with DU-145 prostate, 85.4 µM; with HS 578T breast, over 100 µM; in the assay with MCF7 breast, 47.4 µM; in the assay on MDA-MB-231 breast, over 100 µM; with MDA-N, 59.8 µM. In addition, the values for the TGI in the assay with NCI/ADR-RES ovarian and with SR leukemia were 52.5 µM and 22.9 µM, respectively.
For the compound `COc1cccc(NC(=O)CC(=O)NN2C(=O)/C(=C/c3ccc(N(CCC#N)CCC#N)cc3)N=C2c2cc([N+](=O)[O-])ccc2Cl)c1`, the TGI with DMS 114 small cell lung, in the assay on KM20L2 colon, with M19-MEL melanoma, in the assay on RXF-631 renal, with SR leukemia and in the assay on XF 498 CNS was over 100 µM throughout.
For `CCCC[C@H]1C(=O)O[C@H](C)[C@H](NC(=O)c2cccc(NC=O)c2OC)C(=O)O[C@@H](C)[C@@H]1OC(=O)CC(C)C` (tested in a mixture with another compound), the TGI in the assay on 786-0 renal was found to be 29.3 µM; in the assay with DU-145 prostate it was 55.7 µM; in the assay on HS 578T breast, 63.1 µM; in the assay with MCF7 breast, 28.1 µM; in the assay on MDA-MB-231 breast, 29.8 µM; with MDA-N, 50.3 µM. Also, the values for the TGI in the assay with NCI/ADR-RES ovarian and with SR leukemia were 61.1 µM and 50.5 µM, respectively.
For `C/C(=C\C(=N\NC(=N)N)c1ccccc1)c1ccccc1`, the TGI in the assay with 786-0 renal was 11.3 µM; with DU-145 prostate, 9.49 µM; in the assay with HS 578T breast, 18.5 µM; in the assay on MCF7 breast it was 1.58 µM; in the assay with MDA-N it was 2.7 µM; in the assay with NCI/ADR-RES ovarian it was 10.1 µM. The TGI with SR leukemia worked out at 6.59 µM.
Turning to `Cc1cn(Cc2cn(CC3OC(n4cc(C)c(=O)[nH]c4=O)CC3O)nn2)c(=O)[nH]c1=O` (stereo not drawn), the TGI with DU-145 prostate, with HS 578T breast, with MCF7 breast, in the assay with MDA-MB-231 breast, in the assay on MDA-N and in the assay with NCI/ADR-RES ovarian was over 100 µM each time.
Turning to `COc1ccc(N=Cc2ccc(N(CCC#N)S(=O)(=O)c3ccccc3)cc2C)cc1`, the TGI with DMS 114 small cell lung, in the assay with KM20L2 colon, in the assay on M19-MEL melanoma, in the assay on RXF-631 renal, in the assay with SR leukemia and in the assay with XF 498 CNS was over 100 µM throughout.
Regarding `C[C@H]1CCC/C=C/[C@@H]2C[C@H](O)C[C@H]2[C@H](O)/C=C/C(=O)O1`, the GI50 with DU-145 prostate is 0.0785 µM and 0.218 µM and 0.248 µM; in the assay with MCF7 breast, 0.0417 µM; in the assay with MDA-MB-231 breast, < 0.01 µM and 0.0205 µM and 0.0547 µM; in the assay with NCI/ADR-RES ovarian, 0.0476 µM; in the assay on SR leukemia, < 0.0146 µM and 0.0808 µM and 0.0415 µM. For the same compound, the TGI is over 100 µM with HS 578T breast; 0.0368 µM and 0.0279 µM in the assay with KM20L2 colon; 0.00129 µM with M19-MEL melanoma; 0.0821 µM and 0.0399 µM with MDA-MB-231 breast; 0.272 µM in the assay with RXF-631 renal.
As for `O=c1c(-c2ccccc2)c(SCCN2CCOCC2)n(-c2ccccc2)c(=S)n1-c1ccccc1`, the TGI in the assay on DU-145 prostate, in the assay on HS 578T breast, in the assay on MCF7 breast, in the assay on MDA-MB-231 breast, in the assay on NCI/ADR-RES ovarian and in the assay on SR leukemia was over 100 µM throughout.
Turning to `O=C(O)CCCN=C(C1=C(O)C(=O)N(c2ccccc2)C1=O)c1ccccc1`, the TGI with 786-0 renal, with DU-145 prostate, with HS 578T breast, with MCF7 breast, in the assay with MDA-MB-231 breast and in the assay with MDA-N was over 100 µM in each case. Also, the TGI with NCI/ADR-RES ovarian was over 100 µM; in the assay with SR leukemia, 64.9 µM.
`COc1cc(/C=C2\N=C(c3ccccc3)N(c3nc4ccc(Sc5ccccc5)cc4[nH]3)C2=O)cc(OC)c1OC`: the TGI is 42.4 µM in the assay on 786-0 renal; 75.8 µM with DU-145 prostate; over 100 µM with HS 578T breast; 45.9 µM in the assay on MCF7 breast; 50.3 µM in the assay with MDA-MB-231 breast; 24.7 µM in the assay with MDA-N. In addition, the TGI in the assay with NCI/ADR-RES ovarian worked out at 74.6 µM.
With `CCCCCCCCCCCCCCCCCC(=O)OCC1OC(OC)C(NC(=O)N(CCCl)N=O)C(O)C1O` (stereo not drawn), the TGI is over 100 µM in the assay on M19-MEL melanoma, over 100 µM in the assay with SR leukemia and 44 µM in the assay on XF 498 CNS.
For the compound `O=c1[nH]c(=O)n(CCOCP(=O)(O)O)nc1Br`, the TGI in the assay with DU-145 prostate, in the assay with HS 578T breast, in the assay with MCF7 breast, in the assay with MDA-MB-231 breast, in the assay with MDA-N and in the assay on NCI/ADR-RES ovarian was over 100 µM each time. Further, in the assay with SR leukemia, the TGI was over 100 µM.
Consider `Cc1cc(=O)n2c3c(c4c(cc13)c(CN(C)C)cc(=O)n4C)OC2`, for which the TGI in the assay on 786-0 renal is over 100 µM; in the assay on DU-145 prostate, over 75.9 µM; in the assay with HS 578T breast, 41.1 µM; with MCF7 breast, over 60.5 µM; in the assay on MDA-MB-231 breast it was 98.7 µM; in the assay with MDA-N it was over 87.7 µM. Moreover, the results for the TGI in the assay with NCI/ADR-RES ovarian and in the assay on SR leukemia were over 76.9 µM and over 100 µM, respectively.
In the case of `O=C([CH-]C(=O)c1ccccc1)c1ccccc1.O=C([CH-]C(=O)c1ccccc1)c1ccccc1.O=C([CH-]C(=O)c1ccccc1)c1ccccc1.[Cl-].[Hf+4]`, in the assay with KM20L2 colon, the GI50 is 34.2 µM and the TGI is over 100 µM.
In the case of `Cc1cc2c(cc1Cl)SC(c1ccccc1O)NS2(=O)=O` (stereo not drawn), the TGI in the assay with 786-0 renal, with DU-145 prostate, in the assay with HS 578T breast, in the assay on MCF7 breast, in the assay on MDA-MB-231 breast and in the assay on NCI/ADR-RES ovarian was over 100 µM throughout. In the assay on SR leukemia, this compound registered a TGI of 77.3 µM.
Regarding `N#Cc1c(-c2ccc(Cl)cc2)c2c([nH]c1=O)-c1cc([N+](=O)[O-])ccc1CCC2`, the TGI is 79.9 µM in the assay on 786-0 renal; over 100 µM with DU-145 prostate; 99.2 µM in the assay on HS 578T breast; 83 µM with MCF7 breast; 57.3 µM in the assay with MDA-MB-231 breast; over 100 µM in the assay on MDA-N. The TGI with NCI/ADR-RES ovarian was 55.4 µM; with SR leukemia it was over 100 µM.
With `O=S(=O)(O)c1ccc2c(N=Nc3ccccc3)c(O)ccc2c1`, the TGI with 786-0 renal, with DU-145 prostate, in the assay with HS 578T breast, with MCF7 breast, in the assay with MDA-MB-231 breast and in the assay on MDA-N was over 100 µM throughout. In addition, the TGI with NCI/ADR-RES ovarian and in the assay with SR leukemia was over 100 µM in each case.
For `COc1ccc(N=Nc2c(N)nn(C)c2N)cc1`, the TGI with 786-0 renal, in the assay with DMS 114 small cell lung, in the assay with KM20L2 colon, in the assay on M19-MEL melanoma, in the assay on RXF-631 renal and with SR leukemia was over 100 µM throughout.
On to `CCCCCCCCCCCCSC(=S)c1c(C)[nH]n(CCCCCCCCCCCC)c1=O`, for which the TGI in the assay with DMS 114 small cell lung, in the assay on KM20L2 colon, with M19-MEL melanoma, in the assay with RXF-631 renal and in the assay on SR leukemia was over 100 µM in each case.
Consider `CCN(CCO)CCNc1ccc(C)c2sc3ccccc3c(=O)c12`, for which the TGI is 8.57 µM in the assay with 786-0 renal; 20.6 µM in the assay with DMS 114 small cell lung; 21.8 µM with DU-145 prostate; 7.49 µM with HS 578T breast; 7.27 µM in the assay on KM20L2 colon; 3.63 µM with M19-MEL melanoma. The TGI in the assay on MCF7 breast was 3.24 µM; with MDA-MB-231 breast it was 5.32 µM; with MDA-N, 3.16 µM; with NCI/ADR-RES ovarian, 11.7 µM; in the assay on SR leukemia it was over 22.4 µM; in the assay on XF 498 CNS, 10 µM.
For the compound `COP(=O)(OC)[C@H](O)[C@H]1C[C@@H]1c1ccccc1`, the TGI with DU-145 prostate, with HS 578T breast, in the assay with MCF7 breast, in the assay on MDA-MB-231 breast and with NCI/ADR-RES ovarian was over 100 µM each time.
In the case of `O=C(CSSCC(=O)OCCS(=O)(=O)Nc1ccc(Br)cc1)OCCS(=O)(=O)Nc1ccc(Br)cc1`, the TGI in the assay on DMS 114 small cell lung is 29.3 µM; with KM20L2 colon, over 100 µM; with M19-MEL melanoma, 56.4 µM.
As to `O=c1[nH]c2cc([N+](=O)[O-])c(N/N=C/c3ccc(Cl)cc3Cl)c([N+](=O)[O-])c2[nH]1`, the TGI in the assay on 786-0 renal was over 100 µM; with DU-145 prostate, over 100 µM; with HS 578T breast, over 100 µM; with MCF7 breast, over 100 µM; in the assay on MDA-MB-231 breast it was 60.5 µM; in the assay on MDA-N it was over 100 µM. The compound further came in with a TGI in the assay with NCI/ADR-RES ovarian of over 100 µM.
Consider `Cn1cc(-c2nnc(-c3ccc(Cl)cc3)[nH]c2=O)c2ccccc21`, for which the TGI in the assay on 786-0 renal was over 44.6 µM; with DU-145 prostate it was over 51.8 µM; in the assay on HS 578T breast, over 100 µM; with MCF7 breast, over 39.6 µM; with MDA-MB-231 breast, over 84.9 µM; in the assay on MDA-N, 1.83 µM. Moreover, the results for the TGI with NCI/ADR-RES ovarian and in the assay on SR leukemia were 8.03 µM and over 100 µM, respectively.
Turning to `CCOC(=O)/C(=C\NC(C)(C)CO)c1nc2ccccc2[nH]1`, the TGI in the assay on 786-0 renal is over 100 µM; with DU-145 prostate it was over 100 µM; with HS 578T breast, 97.7 µM; in the assay on MCF7 breast, over 100 µM; in the assay on MDA-N, over 100 µM; with NCI/ADR-RES ovarian, over 100 µM. The same compound gave a TGI in the assay on SR leukemia of over 100 µM.
For the compound `CN1NC(c2ccccc2)=C(C#N)C(=O)CC1c1ccc(F)cc1` (stereo not drawn), the TGI with DMS 114 small cell lung, in the assay with RXF-631 renal, in the assay on SR leukemia and in the assay with XF 498 CNS was over 100 µM throughout.
With `O=C(NC(Cc1ccc(Cl)cc1)C(=O)O)c1ccc(I)cc1` (stereo not drawn), the TGI in the assay with M19-MEL melanoma, with MCF7 breast, in the assay on NCI/ADR-RES ovarian and in the assay with XF 498 CNS was over 100 µM in each case.
Turning to `N=C(N)c1ccc(N=Nc2c(O)ccc3cc4c(N=Nc5ccc(C(=N)N)cc5)c(O)ccc4cc23)cc1`, the TGI in the assay with 786-0 renal, in the assay with DU-145 prostate, in the assay on HS 578T breast, in the assay on MCF7 breast, in the assay on MDA-MB-231 breast and in the assay on MDA-N was over 100 µM throughout. Also, the TGI in the assay on NCI/ADR-RES ovarian and in the assay with SR leukemia was over 100 µM each time.
Take `Cc1ccc2c3c1[C@@H]1O[C@@H]1c1cccc(c1-3)[C@@H]1O[C@H]21`: the TGI came to 22.9 µM in the assay on DU-145 prostate; 60.2 µM in the assay with HS 578T breast; 34.8 µM with MCF7 breast; 36.2 µM in the assay on MDA-MB-231 breast; 30.5 µM in the assay with MDA-N; 90 µM in the assay on NCI/ADR-RES ovarian. In the assay on SR leukemia, this compound registered a TGI of 59.3 µM.
